# Measured values published in patent publication US20080014247A1, “METAL-CONTAINING FORMULATIONS AND METHODS OF USE” (Nucryst Pharmaceuticals, priority 2006, published 2008).
# “Also recorded” adds a separate entry of the source. Read-outs that look alike come from different tables or passages of the source.
# Tests used:
# [1] = Compatibility of nanocrystalline silver with excipients; type: physicochemical; details: 10% aqueous solution of excipient, 40° C. overnight
# Enterobacter cloacae = assay: MIC assay (microdilution); type: cell-based
# Escherichia coli = assay: MIC assay (microdilution); type: cell-based
# [2] = tested on: Mycobacterium tuberculosis H37Ra (ATCC 25177); assay: microbe, parasite or virus in culture; type: cell-based
# DNBS-induced colitis [3] = assay: DNBS-induced colitis in rat: total IBD score; type: in vivo
# Source text: Animals: Male Sprague-Dawley rats, weighing approximately 250-300 gm were purchased from Charles River Laboratories (Raleigh, N.C.). The animals were housed under standard conditions with free access to food and water. They were acclimatized for 2-3 days before commencing the experiments. The study protocol was approved by the Institutional Animal Care and Use Committees (IACUC).
# Induction of ulcerative colitis: Colitis was produced according to published methods. Animals were anesthetized by intraperitoneal injection of 75 mg/kg of ketamine plus 5 mg/kg of xylazine. A single intracolonic injection of 120 mg/ml of dinitrobenzenesulfonic acid (DNBS) (Sigma Chemicals, St. Louis, Mo.) in 250 micro liter of 50% ethanol was administered through a Tom Cat catheter (Kendall Sovereign, Mansfield, Mass.) with a closed-end tip, connected to a 1 ml syringe and placed 7 cm proximal to the anus. Lubricant was applied to the tip of the catheter before injection, to protect from mucosal injury. After instillation of DNBS, 0.5 ml of air was insufflated and the catheter was removed.
# Sulfasalazine (Sigma Chemicals, St Louis, Mo.), at a concentration of 120 mg/ml for intracolonic treatment and 30 mg/ml for oral treatment was used as the reference drug in all the experiments. Sulfasalazine was first dissolved in 0.1M NaOH at a concentration about 30-fold higher than the required final concentration, and then suspended in 1.5% PVA for oral dosing and 5.7% PVA for intracolonic dosing.
# One group was not treated and served as no treatment group. Treatment began one day after administration of DNBS.
# Macroscopic Observations: Body weight was recorded daily and the animals were examined for their physical appearance. After five days of treatment, animals were sacrificed. The colon was excised between the ileocecal junction and rectum, and opened longitudinally. After scoring of the consistency of the stool the colon was rinsed in normal saline, examined and thickness of the colonic wall and number and size of ulcers were scored. Stool consistency was graded on a scale of 0-3: 0=normal stool, well formed pellets rigid as normal; 1=loose stool, formed pellet with moisture, soft stool keeping in stool shape; 2=loose stool, stools that have abnormal form with much moisture, softer shapeless stool; 3=watery or bloody diarrhea.
# Thickness of colonic wall was graded on a scale of 0-4: 0=normal, no thickness; 1=mild thickness in lower portion of the colon; 2=moderate thickness in localized area; 3=moderate thickness extending to the central portion of the colon; 4=severe thickness in the whole colon. Colonic ulceration was graded on a scale of 0-10: 0=no ulcers; 1=one small ulcer less than 2-3 mm; 2=one large ulcer more than 2-3 mm; 3=two large ulcerations more than 2-3 mm in diameter; 4=two or more sites of ulcerations extending 1 cm along the length; 5-10=when an area of ulceration extended more than 1 cm along the length of the colon, the score increases by 1 for each additional cm of involvement. The total IBD score, obtained by the sum of the scores of colonic ulcer, colon thickness and stool consistency for each animal, was calculated for each treatment group.
# Methods: Colitis was induced in rats using DNBS as described in Example 25. Animals were treated intracolonically (250 μl of the test reagents) once a day for five days. […] Methods: Colitis was induced in rats using DNBS as described in Example 25. Animals were treated intracolonically (250 μl of the test reagents) once a day for five days.
# DNBS-induced colitis [4] = assay: DNBS-induced colitis in rat: colon histopathological inflammation score; type: in vivo; details: oral 100 mg/kg, five days
# Protocol: Histopathology: A piece of colonic tissue at 2-4 cm proximal to the anus was excised and fixed in 10% formalin and the sections were stained with hematoxylin and eosin. The remaining length of the colonic tissues was stored at −80° C. for subsequent biochemical assays. The histology slides were examined by a veterinary pathologist who was blinded to the treatment groups. The extent of microscopic mucosal damage of the colon was scored on scale of 0-5 as described with slight modification: 0=normal histological appearance; 1=histological damage limited to surface epithelium, mild infiltration of the submucosa; 2=focal ulceration and cell disruption limited to mucosa, abnormal appearance of colonic wall, mild infiltration of inflammatory cells; 3=focal, transmural inflammation and ulceration, with mild to moderate infiltration of inflammatory cells; 4=Extensive transmural ulceration and inflammation bordered by areas of normal mucosa, moderate infiltration of inflammatory cells; 5=extensive transmural ulceration and inflammation involving entire section from epithelium to serosa, severe infiltration of inflammatory cells.
# [5] = DNBS-induced colitis in rat: body weight; type: in vivo; details: rats with DNBS colitis, intracolonic or oral treatment
# MMP-9 [6] = assay: Gelatin zymography of colonic homogenates; type: in vivo, rat; details: oral 100 mg/kg
# Protocol: Gelatin Zymography Activities of MMP-9 and MMP-2 in colonic tissue homogenates were determined by gelatin zymography as described previously. Briefly, colonic homogenates were mixed with equal volume of zymograph sample buffer. Samples were loaded on a 10% SDS-polyacrylamide gel containing 0.1% gelatin. After electrophoresis, the SDS was removed from the gel by incubation with renaturing buffer containing 2% Triton-X-100 for 1 hour. The gel was incubated overnight in developing buffer containing 50 mM Tris-HCl, pH 7.8, 5 mM CaCl2, 0.2 M NaCl, 0.02% Brij-35. The gel was subsequently stained with Coumassie blue for 30 minutes and destained with destaining solution containing 8% acetic acid and 4% methanol. Gelatinolytic activity was determined as transparent bands against the blue background of stained gelatin. MMPs were identified by their molecular weight compared with the standards. Absence of a transparent band on the gel was evidenced as no MMP-9 or MMP-2 activity of the sample tested.
# MMP-9 [7] = assay: Immunohistochemical staining of colon tissue; type: in vivo, rat; details: oral treatment, five days
# Protocol: (§1) Immunohistochemistry: A Universal Streptavidin/Biotin detection system (Thermo Shandon, Pittsburgh, Pa.) was used for immunohistochemical staining of formalin fixed, paraffin embedded biopsies of the colon. After dewaxing, and hydration, sections were treated with protein blocking agent to reduce non-specific binding of antibodies. The tissues were then incubated with rabbit anti-rat TNF-α, or mouse anti-rat IL-12 p70 antibodies (Biosource International, Inc, Camarillo, Calif.); rabbit anti-rat IL-1β (Serotec, Raleigh, N.C.) or rabbit anti-rat MMP-9 antibody (Chemicon International, Telecuma, Calif.) in 1% bovine serum albumin in phosphate buffered saline. Incubations with secondary antibodies, streptavidin/biotin, and chromogenic detection of peroxidase were performed according to the manufacturer's protocol. Sections were counterstained, dehydrated, mounted and examined. The intensity of the immuno-peroxidase staining was graded as described previously. Expression of cytokines was graded as: 0, no staining in the section; 1, less than 25% of the section; 2, 25-50% of the section; 3, 50-75% of the section; 4, >75% of the section with significant staining.
# TNF-α = assay: Immunohistochemical staining of colon tissue; type: in vivo, rat; details: oral treatment, five days
# Protocol: as §1
# IL-1β = assay: Immunohistochemical staining of colon tissue; type: in vivo, rat; details: oral treatment, five days
# Protocol: as §1
# Pseudomonas aeruginosa = assay: MIC assay (microdilution); type: cell-based
# [8] = tested on: Staphylococcus epidermidis; assay: MIC assay (microdilution); type: cell-based; details: S. epiderm (ATCC); lactate solutions
# Streptococcus pyogenes = assay: MIC assay (microdilution); type: cell-based; details: lactate solutions
# Streptococcus pneumoniae = assay: MIC assay (microdilution); type: cell-based; details: lactate solutions
# Staphylococcus aureus = assay: MIC assay (microdilution); type: cell-based; details: lactate solutions
compound,measurement,setting,value
OCc1ccccc1 [Benzyl alcohol],Reaction with nanocrystalline silver,[1],Grey/slightly red
CCCCCCCCCCCCCCCCCCO [Cetearyl alcohol],Reaction with nanocrystalline silver,[1],Light brown/green/black
CCCCCCCCCCCCCCCCO [Cetyl alcohol],Reaction with nanocrystalline silver,[1],Grey color - no discoloration
CCCCCCCCCCCCCCCCCC(=O)OCC(O)CO (centres unmarked) [Glycerol monostearate],Reaction with nanocrystalline silver,[1],Brown discoloration
CCCCCCCCCCCCCC(=O)OC(C)C [Isopropyl myristate],Reaction with nanocrystalline silver,[1],Grey color - no discoloration
COC(=O)c1ccc(O)cc1 [Methylparaben],Reaction with nanocrystalline silver,[1],Brown discoloration
CC(O)CO (centres unmarked) [Propylene glycol],Reaction with nanocrystalline silver,[1],Discoloration
CCCOC(=O)c1ccc(O)cc1 [Propylparaben],Reaction with nanocrystalline silver,[1],Green discoloration
"OO [Sample H2O2, hydrogen peroxide]",MIC,Enterobacter cloacae; SOD and catalase +,>500 µg/mL
same,MIC,Enterobacter cloacae; SOD and catalase −,63 µg/mL
same,Reaction with nanocrystalline silver,[1],Brown discoloration after drying
same,MIC,Escherichia coli; SOD and catalase +,>500 µg/mL
same,MIC,Escherichia coli; SOD and catalase −,31 µg/mL
O=C([O-])c1ccccc1.[Na+] [Sodium benzoate],Reaction with nanocrystalline silver,[1],White precipitate
CCCCCCCCCCCCCCCCCC(=O)O [Stearic acid],Reaction with nanocrystalline silver,[1],Grey color - no discoloration
"CCOCCOCCO [Transcutol, diethylene glycol monoethyl ether]",Reaction with nanocrystalline silver,[1],Grey color - no discoloration
CC[C@@H](CO)NCCN[C@@H](CC)CO [ethambutol],MIC,[2]; Mycobacterium tuberculosis,2 µg/mL
"O=C(O)c1cc(/N=N/c2ccc(S(=O)(=O)Nc3ccccn3)cc2)ccc1O [sulfasalazine, salicylazosulfapyridine]",total IBD score,"DNBS-induced colitis [3]; intracolonic 100 mg/kg, five days",Significant reduction of IBD score; also recorded: significantly reduced total IBD score
same,total IBD score,"DNBS-induced colitis [3]; intracolonic 100 mg/kg, five days, listed as Sulfasalazine",significantly reduced total IBD score
same,total IBD score,"DNBS-induced colitis [3]; oral 100 mg/kg, five days",significant reduction of the IBD score
same,histopathological inflammation score,DNBS-induced colitis [4],significantly reduced the histopathological inflammation
same,body weight,[5],started gaining body weight after one day of treatment
same,MMP-9 activity,MMP-9 [6],reduced MMP-9 activity
same,expression of MMP-9 in colonic tissue,MMP-9 [7],significantly reduced the expression of MMP-9
same,expression of TNF-α in colonic tissue,TNF-α,significantly reduced the expression of TNF-α and IL-1β
same,expression of IL-1β in colonic tissue,IL-1β,significantly reduced the expression of TNF-α and IL-1β
Benzalkonium chloride [BAC],MIC,Pseudomonas aeruginosa; isolate NP220 (BAC-sensitive),63 µg/mL
same,MIC,Pseudomonas aeruginosa; isolate NP221 (BAC-resistant),4000 µg/mL
same,MIC,Pseudomonas aeruginosa; isolate NP222 (BAC-sensitive),63 µg/mL
Sodium parabens,Reaction with nanocrystalline silver,[1],Precipitation
silver oxide [Ag2O],total IBD score,"DNBS-induced colitis [3]; 0.05% sonicated nanodispersion, 250 μl intracolonically once a day for five days","but not 0.15% and 0.05%, significantly reduced"
same,total IBD score,"DNBS-induced colitis [3]; 0.15% sonicated nanodispersion, 250 μl intracolonically once a day for five days","but not 0.15% and 0.05%, significantly reduced"
same,total IBD score,"DNBS-induced colitis [3]; 0.25% homogenized, 250 μl intracolonically once a day for five days",unable to show significant reduction
same,total IBD score,"DNBS-induced colitis [3]; 0.5% homogenized, 250 μl intracolonically once a day for five days",unable to show significant reduction
same,total IBD score,"DNBS-induced colitis [3]; 0.5% sonicated nanodispersion, 250 μl intracolonically once a day for five days, vs placebo",significantly reduced the total IBD score
same,total IBD score,"DNBS-induced colitis [3]; 1.5% sonicated nanodispersion, 250 μl intracolonically once a day for five days",significantly reduced the total IBD score
same,MIC,[8],2 µg/mL
same,MIC,Streptococcus pyogenes; S. pyog (clin. 303),2 µg/mL
same,MIC,Streptococcus pyogenes; S. pyog (clin. 304),3 µg/mL
same,MIC,[2],2.5 μg/ml silver
same,MIC,"Escherichia coli; E. coli (ATCC), lactate solutions",0.8 µg/mL
same,MIC,Streptococcus pneumoniae; S. pneumo (clin 314),3 µg/mL
same,MIC,Streptococcus pneumoniae; S. pneumo (clin 315),2 µg/mL
same,MIC,Staphylococcus aureus; S. aureus (ATCC),3 µg/mL
same,MIC,Staphylococcus aureus; S. aureus (clin.),6 µg/mL
same,MIC,"Pseudomonas aeruginosa; P. aerug (ATCC), lactate solutions",0.8 µg/mL
same,MIC,"Pseudomonas aeruginosa; P. aerug. (clin.), lactate solutions",2 µg/mL
